Values quoted from earlier work in PubChem BioAssay AID1259409 (Chemical Carcinogenesis Research Information System (CCRIS), 2018).
Values joined by “and” are separate entries in the source; they are usually repeats but may differ in a detail not shown here. Equal values may be shown once.

Test system: rodent chemically induced tumor inhibition, incidence and multiplicity
Test: CCRIS tumor inhibitor studies
Conditions: Species: RAT, Promoter: NONE USED

SMILES: CN1C(C(=O)Nc2ccccn2)=C(O)c2ccccc2S1(=O)=O
- tumour outcome (control, treated, inhibition, significance) (Carcinogen: AZOXYMETHANE, 25843-45-2, Dose [Inhibitor]: 0, 400 PPM IN DIET BEGINNING 1 WK PRIOR TO CARCINOGEN TREATMENT FOR DURATION OF STUDY (STUDY DURATION: 54 WK), Route [Inhibitor]: ORAL, Strain/Sex: F344/MALE, Target Tissue: Type of Lesion: COLON: ADENOCARCINOMA, Dose [Carcinogen]: 15 MG/KG/BW 1/WK FOR 2 WK): 58%, 19%, 67%, p<0.01
- tumour outcome (control, treated, inhibition, significance) (Carcinogen: AZOXYMETHANE, 25843-45-2, Dose [Inhibitor]: 0, 400 PPM IN DIET BEGINNING 1 WK PRIOR TO CARCINOGEN TREATMENT FOR DURATION OF STUDY (STUDY DURATION: 54 WK), Route [Inhibitor]: ORAL, Strain/Sex: F344/MALE, Target Tissue: Type of Lesion: COLON: ADENOMA, Dose [Carcinogen]: 15 MG/KG/BW 1/WK FOR 2 WK): 6%, 3%, 50%, not calculated
- tumour outcome (control, treated, inhibition, significance) (Carcinogen: AZOXYMETHANE, 25843-45-2, Dose [Inhibitor]: 0, 400 PPM IN DIET BEGINNING PRIOR TO CARCINOGEN DOSE AND CONTINUING FOR DURATION OF STUDY (STUDY DURATION: 54 WK), Route [Inhibitor]: ORAL, Strain/Sex: F344/MALE, Target Tissue: Type of Lesion: COLON: ADENOCARCINOMA, Dose [Carcinogen]: 15 MG/KG 1/WK FOR 2 WK): 72%, 22%, 69%, p<0.001
- tumour outcome (control, treated, inhibition, significance) (Carcinogen: AZOXYMETHANE, 25843-45-2, Dose [Inhibitor]: 0, 400 PPM IN DIET BEGINNING PRIOR TO CARCINOGEN DOSE AND CONTINUING FOR DURATION OF STUDY (STUDY DURATION: 54 WK), Route [Inhibitor]: ORAL, Strain/Sex: F344/MALE, Target Tissue: Type of Lesion: COLON: ADENOMA, Dose [Carcinogen]: 15 MG/KG 1/WK FOR 2 WK): 14%, 6%, 57%, not calculated
- tumour outcome (control, treated, inhibition, significance) (Carcinogen: AZOXYMETHANE, 25843-45-2, Dose [Inhibitor]: 0, 400 PPM IN DIET BEGINNING PRIOR TO CARCINOGEN DOSE AND CONTINUING FOR DURATION OF STUDY (STUDY DURATION: 54 WK), Route [Inhibitor]: ORAL, Strain/Sex: F344/MALE, Target Tissue: Type of Lesion: SMALL INTESTINE: ADENOCARCINOMA, Dose [Carcinogen]: 15 MG/KG 1/WK FOR 2 WK): 50%, 8%, 84%, p<0.001
- tumour outcome (control, treated, inhibition, significance) (Carcinogen: AZOXYMETHANE, 25843-45-2, Dose [Inhibitor]: 0, 400 PPM IN DIET BEGINNING PRIOR TO CARCINOGEN DOSE AND CONTINUING FOR DURATION OF STUDY (STUDY DURATION: 54 WK), Route [Inhibitor]: ORAL, Strain/Sex: F344/MALE, Target Tissue: Type of Lesion: SMALL INTESTINE: ADENOMA, Dose [Carcinogen]: 15 MG/KG 1/WK FOR 2 WK): 3%, 0%, 100%, not calculated
- tumour outcome (control, treated, inhibition, significance) (Carcinogen: AZOXYMETHANE, 25843-45-2, Dose [Inhibitor]: 0, 400 PPM IN DIET FOR 56 WK BEGINNING 2 WK PRIOR TO CARCINOGEN TREATMENT (STUDY DURATION: 56 WK), Route [Inhibitor]: ORAL, Strain/Sex: F344/MALE, Target Tissue: Type of Lesion: COLON(DISTAL): TUMOR, Dose [Carcinogen]: 15 MG/KG 1/WK FOR 2 WK): 52%, 22%, 58%, p<0.05
- tumour outcome (control, treated, inhibition, significance) (Carcinogen: AZOXYMETHANE, 25843-45-2, Dose [Inhibitor]: 0, 400 PPM IN DIET FOR 56 WK BEGINNING 2 WK PRIOR TO CARCINOGEN TREATMENT (STUDY DURATION: 56 WK), Route [Inhibitor]: ORAL, Strain/Sex: F344/MALE, Target Tissue: Type of Lesion: COLON(PROXIMAL): TUMOR, Dose [Carcinogen]: 15 MG/KG 1/WK FOR 2 WK): 38%, 7%, 82%, p<0.001
- tumour outcome (control, treated, inhibition, significance) (Carcinogen: AZOXYMETHANE, 25843-45-2, Dose [Inhibitor]: 0, 400 PPM IN DIET FOR 56 WK BEGINNING 2 WK PRIOR TO CARCINOGEN TREATMENT (STUDY DURATION: 56 WK), Route [Inhibitor]: ORAL, Strain/Sex: F344/MALE, Target Tissue: Type of Lesion: SMALL INTESTINE(DISTAL): TUMOR, Dose [Carcinogen]: 15 MG/KG 1/WK FOR 2 WK): 12%, 9%, 25%, not significant
- tumour outcome (control, treated, inhibition, significance) (Carcinogen: AZOXYMETHANE, 25843-45-2, Dose [Inhibitor]: 0, 400 PPM IN DIET FOR 56 WK BEGINNING 2 WK PRIOR TO CARCINOGEN TREATMENT (STUDY DURATION: 56 WK), Route [Inhibitor]: ORAL, Strain/Sex: F344/MALE, Target Tissue: Type of Lesion: SMALL INTESTINE(PROXIMAL): TUMOR, Dose [Carcinogen]: 15 MG/KG 1/WK FOR 2 WK): 33%, 9%, 73%, p<0.05
- tumour outcome (control, treated, inhibition, significance) (Carcinogen: INTRARECTAL, Dose [Inhibitor]: N-METHYLNITROSOUREA, 684-93-5, Route [Inhibitor]: 0, 130 MG/KG VEGETABLE DIET (2.5 MG/D) BEGINNING 7 D POST LAST CARCINOGEN TREATMENT AND CONTINUING FOR STUDY DURATION (S, Strain/Sex: CD-1/MALE, Target Tissue: Type of Lesion: INTESTINE: TUMOR): 9/9 (100%), 5/10 (50%), 50%, not calculated
- tumour outcome (control, treated, inhibition, significance) (Carcinogen: METHYLAZOXYMETHANOL, 590-96-5, Dose [Inhibitor]: 8 MG/KG BW/D IN DIET FOR 19 WK STARTING 7 D AFTER CARCINOGEN TREATMENT AND CONTINUING FOR DURATION OF STUDY (STUDY DURAT, Route [Inhibitor]: ORAL, Strain/Sex: SPRAGUE-DAWLEY/MALE, Target Tissue: Type of Lesion: INTESTINES: TUMOR, Dose [Carcinogen]: 30 MG/KG BW ONCE): 9/9 (100%), 4/10 (40%), 60%, not calculated
- tumour outcome (control, treated, inhibition, significance) (Carcinogen: METHYLAZOXYMETHANOL, 590-96-5, Dose [Inhibitor]: 8.25 MG/KG BW/D IN DIET FOR 19 WK STARTING 7 D AFTER CARCINOGEN TREATMENT AND CONTINUING FOR DURATION OF STUDY (STUDY DU, Route [Inhibitor]: ORAL, Strain/Sex: SPRAGUE-DAWLEY/MALE, Target Tissue: Type of Lesion: INTESTINES: TUMOR, Dose [Carcinogen]: 30 MG/KG BW ONCE): 9/10 (90%), 2/10 (20%), 78%, not calculated and 9/10 (90%), 7/11 (64%), 29%, not calculated
- tumour outcome (control, treated, inhibition, significance) (Carcinogen: METHYLAZOXYMETHANOL, 590-96-5, Dose [Inhibitor]: 12.5 MG/KG BW/D IN DIET FOR 19 WK STARTING 7 D AFTER CARCINOGEN TREATMENT AND CONTINUING FOR DURATION OF STUDY (STUDY DU, Route [Inhibitor]: ORAL, Strain/Sex: SPRAGUE-DAWLEY/MALE, Target Tissue: Type of Lesion: INTESTINES: TUMOR, Dose [Carcinogen]: 30 MG/KG BW ONCE): 8/9 (88%), 3/9 (33%), 63%, not calculated
